# Test results as given in patent publication US20260325485A1, “COMPOSITIONS AND METHODS FOR TREATING PANCREATITIS” (The United States Government as represented by the …, priority 2022, published 2026).
# Entries after “also recorded” stand apart in the source; their conditions may differ. Residues, ends and D or L forms follow the SMILES beside them. No end group written: not given here.
# Experiments:
# [1] = test system: lysosomal acid lipase (LAL); assay: Lysosomal acid lipase (LAL) activity in cerulein pancreatitis; format: in vivo, mouse; settings: WT mice with CER-AP
# Protocol: (§1) FIGS. 8A-8M show derangement of cholesterol metabolism in experimental pancreatitis. Characteristics of cholesterol metabolism were measured, as detailed in FIGS. 4A-4R, in pancreas of WT mice subjected to pancreatitis induced with cerulein (CER-AP), L-arginine (Arg-AP), or CDE diet (CDE-AP) (A, B, and E-G); ex vivo pancreatitis induced in WT mouse (C and I-M) or human acinar cells (D) with 100 nM CCK (CCK-AP) or 1 mM carbachol; and isolated pancreatic mitochondria (H). (B) Cholesterol ester (CE) heatmap; each column represents an individual mouse. (F) IB analysis of the indicated proteins. (G) LAL activity was measured by a fluorogenic assay (n=6 mice per condition). (H) Cholesterol content was measured by enzymatic assay. (I-M) Filipin colocalization with indicated proteins was quantified as detailed in FIGS. 2A-2L. […] Significance was determined by 2-tailed Student's t test (B, E, H, J, K, and M) or 1-way ANOVA followed by Tukey's multiple comparison test (A, C, and D). […]
# Activities of cathepsin (Cat) B and L, caspase-3, trypsin, and lysosomal acid lipase (LAL) were measured in pancreatic tissue or cell homogenates and subcellular fractions with fluorogenic assays using substrates specific for CatB (Z-Arg-Arg-AMC), CatL (Z-Phe-Arg-AMC), caspase-3-like ([…]), trypsin (Boc-Gln-Ala-Arg-AMC), as previously described (1-4, 6, 7); and for LAL (4-methylumbelliferyl oleate), as in (17). […]
# pancreas [2] = assay: Pancreatic total cholesterol and lipids in acute pancreatitis models in WT mice; format: in vivo, mouse
# Protocol: (§2) FIGS. 8A-8M show derangement of cholesterol metabolism in experimental pancreatitis. Characteristics of cholesterol metabolism were measured, as detailed in FIGS. 4A-4R, in pancreas of WT mice subjected to pancreatitis induced with cerulein (CER-AP), L-arginine (Arg-AP), or CDE diet (CDE-AP) (A, B, and E-G); ex vivo pancreatitis induced in WT mouse (C and I-M) or human acinar cells (D) with 100 nM CCK (CCK-AP) or 1 mM carbachol; and isolated pancreatic mitochondria (H). (B) Cholesterol ester (CE) heatmap; each column represents an individual mouse. (F) IB analysis of the indicated proteins. (G) LAL activity was measured by a fluorogenic assay (n=6 mice per condition). (H) Cholesterol content was measured by enzymatic assay. (I-M) Filipin colocalization with indicated proteins was quantified as detailed in FIGS. 2A-2L. Each symbol in A, C-E, and H represents an individual mouse, or cell or mitochondria preparation (n=3-15 per condition). Each symbol in J, K, and M corresponds to 20-30 cells in a different field (n=10-20 fields from 3 cell preparations per condition). Values are mean±SEM. *P<0.05, **P<0.01, ***P<0.001 vs. the same parameter in control/untreated pancreas, acinar cells or isolated mitochondria. Significance was determined by 2-tailed Student's t test (B, E, H, J, K, and M) or 1-way ANOVA followed by Tukey's multiple comparison test (A, C, and D). Scale bars: 10 μm.
# Parameters of cholesterol metabolism were measured in (A, B, E, F) pancreas of mice subjected to pancreatitis induced with cerulean (CER-AP), L-arginine (Arg-AP), or combination of EtOH+palmitoleic acid (EtOH+POA); and (C) ex-vivo models on mouse and human acinar cells treated for 1 h with 100 nM CCK, […] or 500 μM TLCS. […] (B, C) Total cholesterol content was measured with cholesterol assay kit (Abcam, ab65390). […] Signficance was determined by 2-tailed student's t test. […]
# (§3) Total cholesterol content was measured with Cholesterol Assay kit per manufacturer's instructions. […]
# Triglycerides (TAG) content was measured using Triglyceride Assay kit. […]
# pancreatic mitochondria = assay: Cholesterol content of isolated pancreatic mitochondria in cerulein pancreatitis; format: in vivo, mouse; settings: WT mice with CER-AP
# Protocol: as §1
# Mitochondria were isolated from mouse pancreas and liver in a Ca2+-free medium in the presence of 1 mM EGTA, as in (3-5,13). The value of respiratory control ratio in these preparations, measured in the presence of succinate (quality control parameter), was greater than 3.0.
# as §3
# pancreas [3] = assay: Pancreatic mRNA expression and protein levels (qPCR, IB) in cerulein pancreatitis; format: in vivo, mouse
# Protocol: as §2
# FIGS. 9A-9E show cerulein pancreatitis decreases pancreatic levels of GNPTAB and mediators of cholesterol trafficking through LE/Ly. (A, D, and E) IB analysis of the indicated proteins in pancreas of WT mice subjected to CER-AP and in Gnptab^−/− mice. NS, nonspecific band. (B and C) Cholesterol content was measured in pancreas of (B) WT mice that received daily i.p. injections of the NPC1 inhibitor U18666A (10 mg/kg) or vehicle for 15 days and (C) Lamp2^−/− mice. Each symbol in B, C, and E represents an individual mouse. Values are mean±SEM from 3 to 5 mice per condition. ***P<0.001 vs. the same parameter in WT control/untreated or saline-treated mice. Significance was determined by 2-tailed Student's t test (B and C) or 1-way ANOVA followed by Tukey's multiple comparison test (E).
# (§4) Cerulein-induced (CER-AP) and L-arginine induced (Arg-AP) acute pancreatitis models were performed in 12-week-old C57BL/6 mice that received 7 hourly i.p. injections of 50 μg/kg cerulein or 3 hourly i.p. injections of 3.3 g/kg Arg; controls received physiologic saline injections. Mice were euthanized for analyses 7 hours after the first cerulein or 24 hours after the first Arg injection. Choline deficient, ethionine-supplemented (CDE) pancreatitis was induced in young (~5-weeks old) female mice fed either CDE or control diet. Mice were euthanized 72 hours after the diet initiation. These models have been described in detail (1-7).
# Immunoblots were developed using enhanced chemiluminescence detection kit (Pierce), and band intensities were quantified by densitometry using FluorChem HD2 imaging system (Alpha Innotech/ProteinSimple).
# qPCR. Total RNA was isolated from tissue or cells using QIAGEN RNeasy Plus kit according to the manufacturer's instructions, quantified in NanoDrop, and converted to cDNA with high-capacity cDNA reverse transcription kit. KAPA SYBR FAST qPCR Master Mix kit and a LightCycler 480 were used for quantitative PCR. Fold change related to the control group was calculated using the 2ΔΔCt method with Rplp0/36B4 as the reference gene. Primers are available upon request.
# [4] = Serum cholesterol in cerulein pancreatitis; format: in vivo, mouse; settings: CER-AP
# Protocol: as §4
# (§5) Total cholesterol content was measured with Cholesterol Assay kit per manufacturer's instructions. Samples of mouse pancreas and liver, cell pellet homogenates, subcellular fractions, isolated mitochondria, and serum were diluted in the reaction buffer containing cholesterol probe and incubated at 37° C. for 1 h in the dark. To measure total cholesterol, the samples were subjected to digestion with cholesterol esterase. To measure non-esterified cholesterol, the esterase was omitted from the assay.
# mouse acinar cells = assay: Total cholesterol content of mouse acinar cells (ex vivo pancreatitis models or cholesterol chelator); format: cell-based; set-up: total cholesterol in acinar cells, physiologic doses: dose or concentration left out as unconfirmed
# Protocol: as §2
# (§6) Parameters of cholesterol metabolism were measured in (A, B, E, F) pancreas of mice subjected to pancreatitis induced with cerulean (CER-AP), L-arginine (Arg-AP), or combination of EtOH+palmitoleic acid (EtOH+POA); and (C) ex-vivo models on mouse and human acinar cells treated for 1 h with 100 nM CCK, […] or 500 μM TLCS. In (A), each column in CE heatmap represents an individual mouse. (B, C) Total cholesterol content was measured with cholesterol assay kit (Abcam, ab65390). […] Each symbol corresponds to 20-30 cells in each of 8 high-expression (qPCR) of proteins regulating cholesterol synthesis (4 mice/group). (B-D) Each symbol represents an individual animal or cell preparation. (A-D, F) Values are mean±SE (*p<0.05, **p<0.01, ***p<0.001 vs saline or control). Signficance was determined by 2-tailed student's t test.
# (§7) Ex vivo pancreatitis models were performed on mouse and human acinar cells, and human pancreas slices by incubation with supramaximal CCK (100 nM) or carbachol (1 mM), as described previously (80, 81).
# as §5
# Fluorescence intensity (for cholesterol) and absorbance (for TAG) were measured in a Tecan microplate reader. Each measurement was in duplicate, and the values were normalized per mg total protein in the sample.
# free cholesterol = assay: Filipin colocalization with organelle markers in ex vivo CCK-AP; format: cell-based, mouse; settings: 100 nM CCK
# Protocol: as §1
# All fluorescence images were acquired with a Zeiss LSM710 confocal microscope using x63 objective and preset within-experiment image acquisition settings. Quantitative fluorescence analysis was performed with Volocity software (PerkinElmer). Overlap between 2 fluorescent labels was measured using Manders-Costes coefficient. […]
# human acinar cells = assay: Total cholesterol content of human acinar cells (ex vivo pancreatitis models); format: cell-based
# Protocol: as §2, §6, §7
# Human pancreas slices were obtained as in (12), from portions of live normal human pancreata from pre-terminal donors that were not used for transplantation and diverted to research (provided by Trillium Gift of Life Network, Toronto, Ontario, year 2020) or from normal portions of pancreatic cancer operations. Pancreas was cut into ~3×3×3 mm pieces and embedded with 37° C. low melting 3.8% agarose gel in extracellular solution containing (mM): 125 NaCl, 2.5 KCl, 1 MgCl2, 2 CaCl2, 1.25 NaH2PO4, 26 NaHCO3, 2 sodium pyruvate, 0.25 ascorbic acid, 3 myo-inositol, 6 lactic acid, and 7 glucose, and placed on ice to solidify the gel. The gelled tissue blocks were sliced with Vibratome into 120 μm-thick slices; slices were washed with the same extracellular solution, placed in 199 medium containing 0.1 mg/mL soybean trypsin inhibitor, and treated with CCK-8 (CCK) or carbachol for ex-vivo pancreatitis.
# as §3
# [5] = ex-vivo pancreatitis, 1 h, 100 nM CCK, 1 mM carbachol or 500 μM TLCS
# [6] = supramaximal (100 nM) CCK-8 or carbachol, ex vivo AP
Compound,LAL activity [1],"pancreatic total cholesterol, AP models (pancreas [2]; Arg-AP, CER-AP or CDE-AP)",pancreatic triglycerides in CER-AP (pancreas [2]; CER-AP),mitochondrial cholesterol (pancreatic mitochondria),decrease in pancreatic GNPTAB α-subunit protein level (pancreas [3]; CER-AP),pancreatic LAMP2 levels (pancreas [3]; CER-AP),LDLR protein level (pancreas [3]; WT mice with CER-AP),SREBP2 protein level (pancreas [3]; WT mice with CER-AP),pancreatic NPC1 (pancreas [3]; WT mice with CER-AP),pancreatic mRNA expression for enzymes mediating cholesterol synthesis (pancreas [3]; WT mice with CER-AP),"NPC2 levels (pancreas [3]; WT mice with CER-AP, listed as CER)",serum cholesterol levels [4],"cholesterol overload, mouse acinar cells (mouse acinar cells; [5])","total cholesterol in acinar cells, physiologic doses (mouse acinar cells; physiologic doses of CCK or carbachol)","cholesterol content, mouse acinar cells, supramaximal stimulation (mouse acinar cells; [6])",free cholesterol in Rab7-positive LE/Ly (free cholesterol),plasma membrane free cholesterol (filipin colocalization with cadherin) (free cholesterol),"cholesterol overload, human acinar cells (human acinar cells; [5])","cholesterol content, human acinar cells, supramaximal stimulation (human acinar cells; [6])"
CSCC[C@H](NC(=O)[C@H](Cc1c[nH]c2ccccc12)NC(=O)CNC(=O)[C@@H](NC(=O)[C@H](Cc1ccc(OS(=O)(=O)O)cc1)NC(=O)[C@H](CC(=O)O)NC(=O)[C@H](CCC(N)=O)NC(=O)[C@@H]1CCC(=O)N1)[C@@H](C)O)C(=O)N[C@@H](CC(=O)O)C(=O)N[C@@H](Cc1ccccc1)C(N)=O [cerulein] (HELM PEPTIDE1{[Glp].Q.D.[O=C([C@H](Cc1ccc(OS(=O)(=O)O)cc1)N[*:1])[*:2]].T.G.W.M.D.F.[am]}$$$$V2.0),increased,increases,unchanged,elevated,approximately 5 fold,greatly decrease,increased,increased,greatly decreased,upregulation,no change; also recorded: not reduced,did not change,–,–,–,–,–,–,–
"CCK: hormone cholecystokinin-8 (CCK) (DYMGWMDF; ends and bridges not checked; UniProt P06307 96-103, looked up)",–,–,–,–,–,–,–,–,–,–,–,–,prominent,did not alter,increased,accumulation,markedly decreased,prominent,increased
